Experimental data taken from ChEMBL document CHEMBL1201862, “PubChem BioAssay data set” (2004).
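Growth conditions: 96-well plates. Treatment: test compound, 48 hours, 5 concentrations. Analysis: linear interpolation between bracketing concentrations; unreached endpoints set to highest concentration. Abbreviation: GI50, concentration required for 50% inhibition of growth.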 Active and inactive are the calls of the source. Cut-off read from the data, not from the text of the source: active = GI50 up to about 1.1 µM and inactive = higher.

Assays:
Test in all cases: NCI tumour cell line growth inhibition, 48 h
LOX IMVI = test system: LOX IMVI
SNB-19 = test system: SNB-19
HOP-62 = test system: HOP-62
OVCAR-4 = test system: OVCAR-4
SR = test system: SR
SNB-75 = test system: SNB-75
A498 = test system: A498
HT-29 = test system: HT-29
HL-60 = test system: HL-60
HCT-116 = test system: HCT-116
SF-539 = test system: SF-539
SF-268 = test system: SF-268
IGROV-1 = test system: IGROV-1
EKVX = test system: EKVX
NCI-H460 = test system: NCI-H460
A549 = test system: A549
SNB-78 = test system: SNB-78
LXFL 529 = test system: LXFL 529
MOLT-4 = test system: MOLT-4
CCRF-CEM = test system: CCRF-CEM
UO-31 = test system: UO-31
SW-620 = test system: SW-620
NCI-H226 = test system: NCI-H226
NCI-H23 = test system: NCI-H23
COLO 205 = test system: COLO 205
Malme-3M = test system: Malme-3M
DLD-1 = test system: DLD-1
DMS-114 = test system: DMS-114
HOP-92 = test system: HOP-92
HOP-18 = test system: HOP-18
786-0 = test system: 786-0
UACC-62 = test system: UACC-62
K562 = test system: K562
HCC 2998 = test system: HCC 2998
TK-10 = test system: TK-10
OVCAR-8 = test system: OVCAR-8
DMS-273 = test system: DMS-273
RPMI-8226 = test system: RPMI-8226
SN12C = test system: SN12C
SK-OV-3 = test system: SK-OV-3
RXF 393 = test system: RXF 393
HCT-15 = test system: HCT-15
U-251 = test system: U-251
KM12 = test system: KM12
XF498 = test system: XF498
SK-MEL-5 = test system: SK-MEL-5
NCI-H522 = test system: NCI-H522
OVCAR-5 = test system: OVCAR-5
CAKI-1 = test system: CAKI-1
RXF 631 = test system: RXF 631
UACC-257 = test system: UACC-257
M14 = test system: M14
KM-20L2 = test system: KM-20L2
OVCAR-3 = test system: OVCAR-3
SF-295 = test system: SF-295
M19-MEL = test system: M19-MEL
SK-MEL-28 = test system: SK-MEL-28
ACHN = test system: ACHN
SK-MEL-2 = test system: SK-MEL-2

SMILES: N#CC(Sc1ccccc1)C(N)=O (stereo not given)
- GI50 (LOX IMVI): > 100 µM (inactive)
- GI50 (SNB-19): > 100 µM (inactive)
- GI50 (HOP-62): > 100 µM (inactive)
- GI50 (OVCAR-4): > 100 µM (inactive)
- GI50 (SR): > 100 µM (inactive)
- GI50 (SNB-75): > 100 µM (inactive)
- GI50 (A498): > 100 µM (inactive)
- GI50 (HT-29): > 100 µM (inactive)
- GI50 (HL-60): > 100 µM (inactive)
- GI50 (HCT-116): > 100 µM (inactive)
- GI50 (SF-539): > 100 µM (inactive)
- GI50 (SF-268): > 100 µM (inactive)
- GI50 (IGROV-1): > 100 µM (inactive)
- GI50 (EKVX): > 100 µM (inactive)
- GI50 (NCI-H460): > 10 µM (inactive)
- GI50 (A549): > 100 µM (inactive)
- GI50 (SNB-78): > 100 µM (inactive)
- GI50 (LXFL 529): > 100 µM (inactive)
- GI50 (MOLT-4): > 100 µM (inactive)
- GI50 (CCRF-CEM): > 100 µM (inactive)
- GI50 (UO-31): > 100 µM (inactive)
- GI50 (SW-620): > 100 µM (inactive)
- GI50 (NCI-H226): > 100 µM (inactive)
- GI50 (NCI-H23): > 100 µM (inactive)
- GI50 (COLO 205): > 100 µM (inactive)
- GI50 (Malme-3M): > 100 µM (inactive)
- GI50 (DLD-1): > 100 µM (inactive)
- GI50 (DMS-114): > 100 µM (inactive)
- GI50 (HOP-92): > 100 µM (inactive)
- GI50 (HOP-18): > 100 µM (inactive)
- GI50 (786-0): > 100 µM (inactive)
- GI50 (UACC-62): > 100 µM (inactive)
- GI50 (K562): > 100 µM (inactive)
- GI50 (HCC 2998): > 100 µM (inactive)
- GI50 (TK-10): > 100 µM (inactive)
- GI50 (OVCAR-8): > 100 µM (inactive)
- GI50 (DMS-273): > 100 µM (inactive)
- GI50 (RPMI-8226): > 100 µM (inactive)
- GI50 (SN12C): > 100 µM (inactive)
- GI50 (SK-OV-3): > 100 µM (inactive)
- GI50 (RXF 393): > 100 µM (inactive)
- GI50 (HCT-15): > 100 µM
- GI50 (U-251): > 100 µM (inactive)
- GI50 (KM12): > 100 µM (inactive)
- GI50 (XF498): > 100 µM (inactive)
- GI50 (SK-MEL-5): > 100 µM (inactive)
- GI50 (NCI-H522): > 100 µM (inactive)
- GI50 (OVCAR-5): > 100 µM (inactive)
- GI50 (CAKI-1): > 100 µM (inactive)
- GI50 (RXF 631): > 100 µM (inactive)
- GI50 (UACC-257): > 100 µM (inactive)
- GI50 (M14): > 100 µM (inactive)
- GI50 (KM-20L2): > 100 µM (inactive)
- GI50 (OVCAR-3): > 100 µM (inactive)
- GI50 (SF-295): > 100 µM (inactive)
- GI50 (M19-MEL): > 100 µM (inactive)

SMILES: COc1cccc(-c2cc(O)c3cc4c(cc3n2)OCO4)c1
- GI50 (LOX IMVI): 0.0857 µM (active)
- GI50 (SNB-19): 0.109 µM (active)
- GI50 (HOP-62): 0.116 µM (active)
- GI50 (OVCAR-4): 0.938 µM (active)
- GI50 (SR): 0.169 µM (active)
- GI50 (SNB-75): 0.0424 µM (active)
- GI50 (A498): 0.069 µM (active)
- GI50 (HT-29): 0.144 µM (active)
- GI50 (HL-60): 0.0605 µM (active)
- GI50 (HCT-116): 0.0902 µM (active)
- GI50 (SF-539): 0.0603 µM (active)
- GI50 (SF-268): 0.731 µM (active)
- GI50 (IGROV-1): 0.366 µM (active)
- GI50 (EKVX): 2.59 µM (inactive)
- GI50 (NCI-H460): 0.142 µM (active)
- GI50 (A549): 0.313 µM (active)
- GI50 (SNB-78): 0.195 µM (active)
- GI50 (LXFL 529): 0.0598 µM (active)
- GI50 (MOLT-4): 0.139 µM (active)
- GI50 (CCRF-CEM): 0.0757 µM (active)
- GI50 (UO-31): 0.182 µM (active)
- GI50 (SW-620): 0.034 µM (active)
- GI50 (NCI-H226): 0.198 µM (active)
- GI50 (NCI-H23): 0.287 µM (active)
- GI50 (COLO 205): 0.132 µM (active)
- GI50 (Malme-3M): 0.0488 µM (active)
- GI50 (DLD-1): 0.126 µM (active)
- GI50 (DMS-114): 0.232 µM (active)
- GI50 (HOP-92): 18 µM (inactive)
- GI50 (SK-MEL-28): > 53.1 µM (inactive)
- GI50 (HOP-18): 0.638 µM (active)
- GI50 (ACHN): 0.183 µM (active)
- GI50 (786-0): 0.107 µM (active)
- GI50 (UACC-62): 0.0531 µM (active)
- GI50 (K562): 0.0446 µM (active)
- GI50 (HCC 2998): 0.182 µM (active)
- GI50 (TK-10): 0.662 µM (active)
- GI50 (OVCAR-8): 0.22 µM (active)
- GI50 (DMS-273): 0.147 µM (active)
- GI50 (RPMI-8226): 0.492 µM (active)
- GI50 (SN12C): 0.294 µM (active)
- GI50 (SK-OV-3): 0.0374 µM (active)
- GI50 (RXF 393): 0.0452 µM (active)
- GI50 (HCT-15): 0.118 µM
- GI50 (U-251): 0.121 µM (active)
- GI50 (KM12): 0.0502 µM (active)
- GI50 (XF498): 0.042 µM (active)
- GI50 (SK-MEL-5): 0.0352 µM (active)
- GI50 (NCI-H522): 0.0238 µM (active)
- GI50 (OVCAR-5): 0.251 µM (active)
- GI50 (SK-MEL-2): 0.057 µM (active)
- GI50 (CAKI-1): 0.0339 µM (active)
- GI50 (RXF 631): 0.442 µM (active)
- GI50 (UACC-257): 0.0452 µM (active)
- GI50 (M14): 0.0463 µM (active)
- GI50 (KM-20L2): 0.19 µM (active)
- GI50 (OVCAR-3): 0.038 µM (active)
- GI50 (SF-295): 0.0818 µM (active)
- GI50 (M19-MEL): 0.128 µM (active)
